Our source for the T/C, EC50 and MTD values is ChEMBL document CHEMBL3244430, “Antitumor agents. 31. Helenalin sym-dimethylethylenediamine reaction products and related derivatives” (J Med Chem, 1978).

One data set concerns W256. In words: Antitumor activity against rat Walker 256 cells allografted in Sprague-Dawley rat assessed as survival rate at 2.5 mg/kg relative to control. The class given is functional.
Data set [1] concerns P388. Description: Antitumor activity against mouse P388 cells allografted in DBA/2 mouse assessed as survival rate at 48 mg/kg relative to control. In kind it is functional.
Data set [2] in a line: Cytotoxicity against human Hep2 cells assessed as growth inhibition by microtiter method. The class given is functional. The settings on record: HEp-2, read-out: ED50 (the source's name).
For data set [3], the system named is P388. Description: Antitumor activity against mouse P388 cells allografted in DBA/2 mouse assessed as survival rate at 25 mg/kg relative to control. The class given is functional.
Data set [4] deals with P388. Description: Antitumor activity against mouse P388 cells allografted in DBA/2 mouse assessed as survival rate at 10 mg/kg relative to control. The class given is functional.
The test system of data set [5] is P388. Description: Antitumor activity against mouse P388 cells allografted in DBA/2 mouse assessed as survival rate at 4 mg/kg relative to control. In kind it is functional.
Data set [6] can be described thus: Toxicity in Sprague-Dawley rat allografted with rat Walker 256 cells assessed as mortality after 4 days. The class given is organism-based. Particulars: read-out: MNTD.
Data set [7] in a line: Toxicity in DBA/2 mouse allografted with mouse P388 cells assessed as mortality after 4 days. The class given is organism-based. Particulars: read-out: MNTD.
Data set [8] concerns P388. In words: Antitumor activity against mouse P388 cells allografted in DBA/2 mouse assessed as survival rate at 16.8 mg/kg relative to control. In kind it is functional.

As usually defined, the T/C is the result in the treated group divided by that in the control group, in per cent.

With `C[C@@H]1C[C@H]2OC(=O)[C@@H](C)[C@H]2[C@H](O)[C@]2(C)C(=O)C=C[C@@H]12`, the T/C was 207% with W256 and 138% in the data set with P388 [1]. Besides, in data set [2], the EC50 was determined as 0.81 µg/mL.

For the compound `C[C@@H]1C[C@H]2OC(=O)C(CN(C)C)[C@H]2[C@H](O)[C@]2(C)C(=O)C=C[C@@H]12` (some centres undefined), in the data set on P388 [3], the T/C was determined as 130%. Further, the EC50 in [2] is 0.6 µg/mL.

On to `C[C@@H]1C[C@@H](O)[C@@H]([C@H]2CN(C)CCN(C)C2=O)[C@H](O)[C@]2(C)C(=O)C=C[C@@H]12`, for which the T/C was 170% with W256 and 126% in the data set on P388 [3]. For the same compound, the EC50 in data set [2] is 1.87 µg/mL.

On to `CC(=O)O[C@H]1[C@H](C2CN(C)CCN(C)C2=O)[C@H](O)C[C@@H](C)[C@@H]2C=CC(=O)[C@]21C` (some centres undefined), for which the T/C with P388 [3] came out at 100%. The EC50 in data set [2] was determined as 4.96 µg/mL.

Consider `CC(=O)O[C@H]1[C@H](C2CN(C)CCN(C)C2=O)[C@H](OC(=O)/C=C/c2ccccc2)C[C@@H](C)[C@@H]2C=CC(=O)[C@]21C` (some centres undefined), for which, in the data set with P388 [3], the T/C is recorded as 102%. In addition, the EC50 in data set [2] stood at 0.84 µg/mL.

Take `C[C@@H]1C[C@@H](OC(=O)/C=C/c2ccccc2)[C@@H](C2CN(C)CCN(C)C2=O)[C@H](O)[C@]2(C)C(=O)C=C[C@@H]12` (some centres undefined): the EC50 in data set [2] came to 2.89 µg/mL. For the same compound, the T/C in the data set with P388 [4] is listed as 123%.

On to `C[C@@H]1C[C@@H](OC(=O)/C=C/c2ccccc2)[C@@H](C2CN(C)CCN(C)C2=O)[C@H](OC(=O)/C=C/c2ccccc2)[C@]2(C)C(=O)C=C[C@@H]12` (some centres undefined), for which the T/C in the data set on W256 amounted to 288%; in the data set on P388 [4] it was 100%. Also, the EC50 in data set [2] was 0.75 µg/mL.

As to `C[C@@H]1C[C@H]2OC(=O)C(CN(C)C)[C@H]2[C@H](O)[C@]2(C)C(=O)CC(N(C)C)[C@@H]12` (some centres undefined), the figures for the T/C with W256 and in the data set with P388 [4] were 136% and 102%, respectively. In addition, the EC50 in data set [2] was determined as 0.85 µg/mL.

Take `C=C1C(=O)O[C@@H]2C[C@@H](C)[C@@H]3C=CC(=O)[C@@]3(C)[C@@H](OC(=O)/C=C/c3ccccc3)[C@H]12`: the T/C in the data set on P388 [5] stood at 123%; with W256, 157%. Besides, the EC50 in [2] was 0.04 µg/mL.

Turning to `C[C@@H]1C[C@H]2OC(=O)C(CN(C)C)[C@H]2[C@H](O)[C@]2(C)C(O)CC[C@@H]12` (some centres undefined), the EC50 in data set [2] amounted to 3.69 µg/mL.

As to `C=C1C(=O)O[C@@H]2C[C@@H](C)[C@@H]3C=CC(=O)[C@@]3(C)[C@@H](OC(C)=O)[C@H]12` [ANGUSTIBALIN], the T/C with P388 [3] is 78%. Moreover, the EC50 in [2] was determined as 0.29 µg/mL.

As for `O=c1[nH]cc(F)c(=O)[nH]1` [FLUOROURACIL], the T/C in the data set on P388 [3] is 186%.

For `C=C1C(=O)O[C@@H]2C[C@@H](C)[C@@H]3C=CC(=O)[C@@]3(C)[C@@H](O)[C@H]12` [HELENALIN], the MTD at 96 h in [6] was determined as 2.5 mg/kg; in data set [7], 16.8 mg/kg. Besides, the T/C in the data set with P388 [8] turned out to be 127%; with W256, 316%. In addition, the EC50 in [2] was 0.08 µg/mL.

`N[C@@H](Cc1ccc(N(CCCl)CCCl)cc1)C(=O)O` [MELPHALAN]: the results for the T/C in the data set with W256 and with P388 [3] were 317% and 168%, respectively.
